Results reported in patent publication US11834458B2, “Anti-cancer nuclear hormone receptor-targeting compounds” (Nuvation Bio Inc., priority 2021, dated 2023).
pIC50: −log10 of the molar value. Like-named read-outs stand apart in the source and are kept apart here.

Tests used:
T47D cells = assay: Cell viability assay, T47D; type: cell-based; details: Homo sapiens, 144 h
Protocol: (§1) Cell viability assay: LNCap, 22Rv1, MCF7, MDAMB361, T47D, and IEC6 cells are seeded at a density of 500-2000 cells/well in 96 well plates, and a ‘T0’ (timepoint 0) was included along with the assay plate. The plates are then incubated at 37° C., 5% CO2 in a cell culture incubator overnight. On the next day, the ‘T0’ plate was assayed using CellTiterGlo (Promega, Inc) according to the manufacturer's instructions. The appropriate compounds are diluted in DMSO and added to the assay plate (final DMSO concentration of 0.1-0.2%) on the next day. The assay plates are incubated for 6 days at 37° C., 5% CO2. After the incubation period, the plates are assayed using CellTiterGlo (Promega, Inc) according to the manufacturer's instructions and luminescence was read on the EnVision plate reader. Inhibition of the tested compounds was determined by the following formula: Inhibition rate (%)=(1−(RLU compound−RLU day0)/(RLU control−RLU day0))*100%. GraphPadPrism was used to analyze the data and determine GI50/IC50 values.

LNCap cells = assay: Cell viability assay, LNCap; type: cell-based; details: Homo sapiens, 144 h
Protocol: as §1

[1] = target: full-length androgen receptor (Homo sapiens (Human), UniProt P10275); assay: AR antagonism assay; type: cell-based
Chain of full-length androgen receptor (P10275 whole entry): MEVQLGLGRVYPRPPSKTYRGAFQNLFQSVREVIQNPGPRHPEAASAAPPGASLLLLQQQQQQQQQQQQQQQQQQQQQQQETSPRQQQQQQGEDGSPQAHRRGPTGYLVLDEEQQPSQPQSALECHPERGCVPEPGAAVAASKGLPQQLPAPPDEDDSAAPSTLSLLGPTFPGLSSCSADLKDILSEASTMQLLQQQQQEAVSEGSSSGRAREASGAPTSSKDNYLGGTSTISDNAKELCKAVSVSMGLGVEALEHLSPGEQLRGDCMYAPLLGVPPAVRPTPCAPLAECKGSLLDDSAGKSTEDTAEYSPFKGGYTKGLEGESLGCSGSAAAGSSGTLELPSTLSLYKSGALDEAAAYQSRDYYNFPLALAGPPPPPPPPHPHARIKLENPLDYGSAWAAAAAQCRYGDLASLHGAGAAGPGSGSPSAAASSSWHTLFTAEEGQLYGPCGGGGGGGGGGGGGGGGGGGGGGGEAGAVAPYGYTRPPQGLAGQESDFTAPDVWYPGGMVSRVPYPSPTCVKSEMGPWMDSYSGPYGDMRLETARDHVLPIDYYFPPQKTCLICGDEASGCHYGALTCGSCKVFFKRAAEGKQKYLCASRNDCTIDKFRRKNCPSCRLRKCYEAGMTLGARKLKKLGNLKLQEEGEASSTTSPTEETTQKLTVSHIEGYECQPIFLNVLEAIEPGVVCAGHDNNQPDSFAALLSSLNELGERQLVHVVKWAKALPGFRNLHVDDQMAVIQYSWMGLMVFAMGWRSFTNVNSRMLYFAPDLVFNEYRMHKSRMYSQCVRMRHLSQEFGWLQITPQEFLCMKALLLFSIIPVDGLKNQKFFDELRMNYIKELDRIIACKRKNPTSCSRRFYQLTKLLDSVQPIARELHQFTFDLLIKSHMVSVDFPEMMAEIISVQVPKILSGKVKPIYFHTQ
Protocol: AR antagonism assay: To evaluate AR antagonist activity, test compound was added to the assay plate (top dose 10 μM, 3 fold serial dilution, 10 point dose response). HEK293 cells stably expressing the full-length androgen receptor were seeded at a density of 20,000 cells/well in the assay plate. The assay plate was then incubated at room temperature for 10 minutes and at 37° C., 5% CO2 for 20 minutes. Testosterone was added to the assay plate at 1 nM final concentration and the assay plate incubated at 37° C., 5% CO2 for 20 h. After the incubation period, Steady-glo was added to the assay plate and mixed at room temperature for 20 minutes on an orbital shaker, before reading out on the EnVision plate reader.

IEC6 cells = assay: Cell viability assay, IEC6; type: cell-based; details: Rattus norvegicus; for pIC50: 144 h, IEC-6 cells, 6 days, CellTiterGlo, read-out: IEC-6 (IC50); for IC50: IEC-6, 144 h, read-out: IEC-6 (IC50, nM)
Protocol: as §1

AR = AR (Homo sapiens (Human), UniProt P10275, T878A); assay: AR binding assay
Chain of AR (P10275 whole entry T878A): as the sequence (P10275 whole entry) above, with T878A counted along it
Protocol: AR binding assay: To assess AR binding, test compound (top dose 10 μM, 4 fold serial dilution, 8 point dose response) and control (progesterone) were transferred to the assay plate. Cytosol from LnCaP cells was added to the plate, followed by addition of radiolabeled ^3H-R1881 at a final concentration of 1 nM. The plate was sealed, and the reaction was incubated at 300 rpm at 4° C. for 24 hrs. Radioligand absorption buffer (10 mM Tris-HCl, pH 7.4; 1.5 mM EDTA; 1 mM DTT; 0.25% charcoal; 0.0025% dextran) was then added to the plate, mixed, and incubated at 4° C. for 15 minutes. The plate was then centrifuged at 3000 rpm for 30 minutes at 4° C. The supernatant was transferred to the scint-tube and Tri-carb was used for scintillation counting. The data was analyzed using GraphPadPrism v5.0 and binding IC50 was determined as the concentration where 50% inhibition of radioligand binding was observed.

22Rv1 cells = assay: Cell viability assay, 22Rv1; type: cell-based; details: Homo sapiens
Protocol: as §1

[2] = T47D, read-out: T47D (GI50, nM)
[3] = LNCaP, read-out: LNCap (GI50, nM)
[4] = cytosol from LnCaP cells, 3H-R1881 1 nM, 4° C. 24 hrs, read-out: AR binding
[5] = 144 h, 22RV1 cells, 6 days, CellTiterGlo, read-out: 22RV1 (GI50)
[6] = LNCap cells, 6 days, CellTiterGlo, read-out: LNCap (GI50)

CCc1c2c(nc3ccc(OC(=O)N4CCN(CCCCCCN(C)c5ccc([C@H]6C[C@@]7(C)[C@@H](CC[C@]7(OC(C)=O)C(C)=O)[C@@H]7CCC8=CC(=O)CCC8=C76)cc5)CC4)cc13)-c1cc3c(c(=O)n1C2)COC(=O)[C@]3(O)CC [Compound 4, (S)-4,11-diethyl-4-hydroxy-3,14-dioxo-3,4,12,14-tetrahydro-1H-pyrano[3′,4′:6,7]indolizino[1,2-b]quinolin-9-yl 4-(6-((4-((8S,11R,13S,14S,17R)-17-acetoxy-17-acetyl-13-methyl-3-oxo-2,3,6,7,8,11,12,13,14,15,16,17-dodecahydro-1H-cyclopenta[a]phenanthren-11-yl)phenyl)(methyl)amino)hexyl)piperazine-1-carboxylate]
GI50 (T47D cells; [2]): 10 to 500 nM
GI50 (LNCap cells; [3]): 10 to 500 nM

CC[C@@]1(O)C(=O)OCc2c1cc1n(c2=O)Cc2cc3c(CN(C)C)c(OCCCCCOc4ccc(C(=O)N[C@H]5CC[C@H](Oc6ccc(C#N)c(Cl)c6)CC5)cc4)ccc3nc2-1 [Compound 7, N-((1r,4r)-4-(3-Chloro-4-cyanophenoxy)cyclohexyl)-4-((5-(((S)-10-((dimethylamino)methyl)-4-ethyl-4-hydroxy-3,14-dioxo-3,4,12,14-tetrahydro-1H-pyrano[3′,4′:6,7]indolizino[1,2-b]quinolin-9-yl)oxy)pentyl)oxy)benzamide]
pIC50 [1]: 6.30 to 8.00
pIC50 (IEC6 cells): 6.00 to 6.30
pIC50 (AR; [4]): < 6.00
GI50 (22Rv1 cells; [5]): 10 to 500 nM
GI50 (LNCap cells; [6]): 10 to 500 nM

CC[C@@]1(O)C(=O)OCc2c1cc1n(c2=O)Cc2cc3c(CN(C)C)c(OC4CCN(CCCCCCN(C)c5ccc([C@H]6C[C@@]7(C)C(CC[C@]7(OC(C)=O)C(C)=O)C7CCC8=CC(=O)CCC8=C76)cc5)CC4)ccc3nc2-1 (stereo partly drawn) [Compound 9, (11R,13S,17R)-17-Acetyl-11-(4-((6-(4-(((S)-10-((dimethylamino)methyl)-4-ethyl-4-hydroxy-3,14-dioxo-3,4,12,14-tetrahydro-1H-pyrano[3′,4′:6,7]indolizino[1,2-b]quinolin-9-yl)oxy)piperidin-1-yl)hexyl)(methyl)amino)phenyl)-13-methyl-3-oxo-2,3,6,7,8,11,12,13,14,15,16,17-dodecahydro-1H-cyclopenta[a]phenanthren-17-yl acetate]
pIC50 [1]: < 6.00
pIC50 (IEC6 cells): < 6.00
pIC50 (AR; [4]): 6.30 to 8.00
GI50 (T47D cells; T47D cells, 6 days, CellTiterGlo, read-out: T47D (GI50)): 10 to 500 nM
GI50 (LNCap cells; [6]): 501 to 1000 nM

CC[C@@]1(O)C(=O)OCc2c1cc1n(c2=O)Cc2cc3c(CN(C)C)c(OC4CCN(CCCCCCCN(C)c5ccc([C@H]6C[C@@]7(C)C(CC[C@]7(OC(C)=O)C(C)=O)C7CCC8=CC(=O)CCC8=C76)cc5)CC4)ccc3nc2-1 (stereo partly drawn) [Compound 10, (11R,13S,17R)-17-Acetyl-11-(4-((7-(4-(((S)-10-((dimethylamino)methyl)-4-ethyl-4-hydroxy-3,14-dioxo-3,4,12,14-tetrahydro-1H-pyrano[3′,4′:6,7]indolizino[1,2-b]quinolin-9-yl)oxy)piperidin-1-yl)heptyl)(methyl)amino)phenyl)-13-methyl-3-oxo-2,3,6,7,8,11,12,13,14,15,16,17-dodecahydro-1H-cyclopenta[a]phenanthren-17-yl-acetate]
pIC50 [1]: < 6.00
pIC50 (AR): 6.30 to 8.00
GI50 (T47D cells; [2]): 10 to 500 nM
GI50 (LNCap cells; [3]): 10 to 500 nM

CC[C@@]1(O)C(=O)OCc2c1cc1n(c2=O)Cc2cc3c(CN(C)C)c(OC(=O)N4C5CCC4CN(CCCCCCN(C)c4ccc([C@H]6C[C@@]7(C)[C@@H](CC[C@]7(OC(C)=O)C(C)=O)[C@@H]7CCC8=CC(=O)CCC8=C76)cc4)C5)ccc3nc2-1 [Compound 22, (S)-10-((Dimethylamino)methyl)-4-ethyl-4-hydroxy-3,14-dioxo-3,4,12,14-tetrahydro-1H-pyrano[3′,4′:6,7]indolizino[1,2-b]quinolin-9-yl 3-(6-((4-((8S,11R,13S,14S,17R)-17-acetoxy-17-acetyl-13-methyl-3-oxo-2,3,6,7,8,11,12,13,14,15,16,17-dodecahydro-1H-cyclopenta[a]phenanthren-11-yl)phenyl)(methyl)amino)hexyl)-3,8-diazabicyclo[3.2.1]octane-8-carboxylate]
IC50 (IEC6 cells): 10 to 500 nM
GI50 (T47D cells; [2]): 10 to 500 nM
GI50 (LNCap cells; [3]): 10 to 500 nM

CC[C@@]1(O)C(=O)OCc2c1cc1n(c2=O)Cc2cc3c(CN(C)C)c(OC(=O)N4C[C@@H](C)N(CCCCCCN(C)c5ccc([C@H]6C[C@@]7(C)[C@@H](CC[C@]7(OC(C)=O)C(C)=O)[C@@H]7CCC8=CC(=O)CCC8=C76)cc5)C[C@@H]4C)ccc3nc2-1 [Compound 23, (S)-10-((Dimethylamino)methyl)-4-ethyl-4-hydroxy-3,14-dioxo-3,4,12,14-tetrahydro-1H-pyrano[3′,4′:6,7]indolizino[1,2-b]quinolin-9-yl (2S,5R)-4-(6-((4-((8S,11R,13S,14S,17R)-17-acetoxy-17-acetyl-13-methyl-3-oxo-2,3,6,7,8,11,12,13,14,15,16,17-dodecahydro-1H-cyclopenta[a]phenanthren-11-yl)phenyl)(methyl)amino)hexyl)-2,5-dimethylpiperazine-1-carboxylate]
IC50 (IEC6 cells): 10 to 500 nM
GI50 (T47D cells; [2]): 10 to 500 nM
GI50 (LNCap cells; [3]): 501 to 1000 nM

CC[C@@]1(O)C(=O)OCc2c1cc1n(c2=O)Cc2cc3c(CN(C)C)c(OC(=O)N4C[C@H](C)N(CCCCCCN(C)c5ccc([C@H]6C[C@@]7(C)[C@@H](CC[C@]7(OC(C)=O)C(C)=O)[C@@H]7CCC8=CC(=O)CCC8=C76)cc5)C[C@H]4C)ccc3nc2-1 [Compound 24, (S)-10-((Dimethylamino)methyl)-4-ethyl-4-hydroxy-3,14-dioxo-3,4,12,14-tetrahydro-1H-pyrano[3′,4′:6,7]indolizino[1,2-b]quinolin-9-yl (2R,5S)-4-(6-((4-((8S,11R,13S,14S,17R)-17-acetoxy-17-acetyl-13-methyl-3-oxo-2,3,6,7,8,11,12,13,14,15,16,17-dodecahydro-1H-cyclopenta[a]phenanthren-11-yl)phenyl)(methyl)amino)hexyl)-2,5-dimethylpiperazine-1-carboxylate]
IC50 (IEC6 cells): 501 to 1000 nM
GI50 (T47D cells; [2]): 10 to 500 nM
GI50 (LNCap cells; [3]): 10 to 500 nM

CC[C@@]1(O)C(=O)OCc2c1cc1n(c2=O)Cc2cc3c(CN(C)C(=O)CO[C@H]4CC[C@H]5[C@@H]6CC[C@H]7CC(=O)CC[C@]7(C)[C@H]6CC[C@]45C)c(O)ccc3nc2-1 [Compound 25, 2-(((5S,8R,9S,10S,13S,14S,17S)-10,13-Dimethyl-3-oxohexadecahydro-1H-cyclopenta[a]phenanthren-17-yl)oxy)-N—(((S)-4-ethyl-4,9-dihydroxy-3,14-dioxo-3,4,12,14-tetrahydro-1H-pyrano[3′,4′:6,7]indolizino[1,2-b]quinolin-10-yl)methyl)-N-methylacetamide]
pIC50 (IEC6 cells): < 6.00
GI50 (22Rv1 cells; [5]): 10 to 500 nM
GI50 (LNCap cells; [6]): 10 to 500 nM

CC[C@@]1(O)C(=O)OCc2c1cc1n(c2=O)Cc2cc3c(CN(C)C)c(OC(=O)N4CCN(C(=O)C5CCN(c6ccc(C(=O)N[C@H]7CC[C@H](Oc8ccc(C#N)c(Cl)c8)CC7)nn6)CC5)CC4)ccc3nc2-1 [Compound 26, (S)-10-((Dimethylamino)methyl)-4-ethyl-4-hydroxy-3,14-dioxo-3,4,12,14-tetrahydro-1H-pyrano[3′,4′:6,7]indolizino[1,2-b]quinolin-9-yl 4-(1-(6-(((1r,4r)-4-(3-chloro-4-cyanophenoxy)cyclohexyl)carbamoyl)pyridazin-3-yl)piperidine-4-carbonyl)piperazine-1-carboxylate]
IC50 (IEC6 cells): > 1000 nM
GI50 (22Rv1 cells; 22Rv1, 144 h, read-out: 22RV1 (GI50, nM)): 10 to 500 nM
GI50 (LNCap cells; [3]): 10 to 500 nM
